Results as given in patent US20110021621A1, “Drug for treating circulatory insufficiency” (ACTIVUS PHARMA CO., LTD., priority 2005, published 2011).
Read-outs that look alike come from different tables or passages of the source.

Columns and labels:
[1] = Stability test in acidic or basic solution (half-life by liquid chromatography); format: physicochemical; details: time to 50% residual rate
Protocol: The test compounds were dissolved in an acidic solution (phosphate buffer (pH3.4)) and in a basic solution (phosphate buffer (pH7.3)) at the concentration of 1 mmoL/L. Immediately after they were dissolved, each solution was analyzed with liquid chromatography using an acidic solution (phosphate buffer (pH3.4)) or basic solution (phosphate buffer (pH7.3)) as an eluent. The peak area of the test compounds was measured as the initial value. Furthermore, a time-course analysis with liquid chromatograpy was conducted to measure the peak area at each time point. The solution containing the test compound was kept in an incubator at 37° C. Based on the measured peak area of the test compounds, the percentage (%) of the peak area at each measurement time point was calculated, taking the peak area of the initial value as 100(%). The half-life (the time to show a 50% residual rate of the test compounds) of the test compounds was further calculated, and its stability was evaluated based on the half-life.

[2] = test system: circulatory insufficiency model of rats induced by injection of lauric-acid into their femoral artery; experiment: Circulatory insufficiency model induced by lauric-acid in rats (lesion index); format: in vivo, rat; parameters: key: summed toe lesion grades, +5 if heel reached; max 25 points; details: male Wistar rats, average, max 25 points; for Lesion Index after 10 days: 30 mg/kg multiple oral dosing (1 h prior to and 3 h after lauric-acid, then twice daily for 9 days), 10 days after lauric-acid injection; for Lesion Index after 3 days: 30 mg/kg multiple oral dosing (1 h prior to and 3 h after lauric-acid, then twice daily), 3 days after lauric-acid injection
Protocol: We performed this test in order to evaluate the pharmacological effect of the compounds of the present invention using a circulatory insufficiency model of rats induced by injection of lauric-acid into their femoral artery.
13-week-old male Wistar rats (body weight is 280 to 316 g), 8 rats per one group, were used. The rats were held in a supine position under anesthesia due to administration of 40 mg/kg of sodium pentobarbital by intraperitoneal injection. Then, the right femoral area was incised, thereby injecting 0.15 mL of 10 mg/mL lauric-acid solution into the femoral artery in order to induce lower limb gangrene caused by the peripheral vascular disorder. A few drops of instant adhesive (Aron-alpha; registered trademark) were used to stop bleeding, followed by topical application of antibiotics (potassium penicillin G solution) to prevent infection, and the incision site was then sutured.
The suspension was administered, by means of multiple oral dosing, 1 hour prior to and 3 hours after injection of lauric-acid and twice daily (at 10:00 and 17:00) for the following 9 days, at the dose of 30 mg/kg for each compound. […] The suspension was administered orally 3 hours prior to injection of lauric-acid at the dose of 300 mg/kg.
The extent of lesions was evaluated 3 days and 10 days after injection of lauric acid by the following criteria:
The lesion of each toe was graded and the total points of 5 toes were use as a lesion index, wherein 5 points were further added when the lesion reached the heel (i.e. the maximum lesion index was 25 points).
The shown number refers to the average value of the lesion index obtained from the evaluation.

SMILES: O=c1oc2ccc(-c3ccccc3)cc2c(O)c1O [C, reference compound]
- half-life at 1 mmoL/L ([1]; phosphate buffer pH 3.4, 37° C., read-out: Half-life, pH 3.4 solution (converted)): 35 h
- half-life at 1 mmoL/L ([1]; phosphate buffer pH 7.3, 37° C., read-out: Half-life, pH 7.3 solution (converted)): 65 h

SMILES: CCCCCCOc1c(O)c2c(O)cccc2oc1=O [Compound 9]
- Lesion Index after 10 days [2]: 7.8
- Lesion Index after 3 days [2]: 2.5

SMILES: CCCCCCOc1c(O)c2cc(O)ccc2oc1=O [Compound 67]
- Lesion Index after 10 days [2]: 7.5
- Lesion Index after 3 days [2]: 2.8

SMILES: CCCCCCOc1c(O)c2cc(OCCCC)ccc2oc1=O [Compound 98]
- Lesion Index after 10 days [2]: 8.4
- Lesion Index after 3 days [2]: 3.0

SMILES: CCOc1c(O)c2ccc(O)cc2oc1=O [Compound 118]
- Lesion Index after 10 days [2]: 8.3
- Lesion Index after 3 days [2]: 2.4

SMILES: CCCOc1c(O)c2ccc(O)cc2oc1=O [Compound 119]
- Lesion Index after 10 days [2]: 7.1
- Lesion Index after 3 days [2]: 2.5

SMILES: CC(C)Oc1c(O)c2ccc(O)cc2oc1=O [Compound 120]
- Lesion Index after 10 days [2]: 8.0
- Lesion Index after 3 days [2]: 2.3

SMILES: CCCCOc1c(O)c2ccc(O)cc2oc1=O [Compound 121]
- Lesion Index after 10 days [2]: 7.3
- Lesion Index after 3 days [2]: 2.8

SMILES: CCCCCOc1c(O)c2ccc(O)cc2oc1=O [Compound 123]
- Lesion Index after 10 days [2]: 7.9
- Lesion Index after 3 days [2]: 2.6

SMILES: CCC(CC)Oc1c(O)c2ccc(O)cc2oc1=O [Compound 124]
- Lesion Index after 10 days [2]: 8.3
- Lesion Index after 3 days [2]: 3.0

SMILES: CCCCCCCCOc1c(O)c2ccc(O)cc2oc1=O [Compound 131]
- Lesion Index after 10 days [2]: 7.5
- Lesion Index after 3 days [2]: 3.0

SMILES: CC(C)=CCCC(C)=CCOc1c(O)c2ccc(O)cc2oc1=O [Compound 141]
- Lesion Index after 10 days [2]: 7.8
- Lesion Index after 3 days [2]: 2.6

SMILES: CC(C)=CCCC(C)=CCOc1ccc2c(O)c(OCC=C(C)CCC=C(C)C)c(=O)oc2c1 [Compound 174]
- Lesion Index after 10 days [2]: 7.5
- Lesion Index after 3 days [2]: 2.7

SMILES: CCCCOc1c(O)c2cccc(O)c2oc1=O [Compound 179]
- Lesion Index after 10 days [2]: 8.4
- Lesion Index after 3 days [2]: 3.6

SMILES: CCCCCCC=COc1c(O)c2cccc(O)c2oc1=O [Compound 196]
- Lesion Index after 10 days [2]: 7.4
- Lesion Index after 3 days [2]: 3.3

SMILES: CCCCCCOc1c(O)c2cccc(OCCCC)c2oc1=O [Compound 214]
- Lesion Index after 10 days [2]: 7.9
- Lesion Index after 3 days [2]: 3.5

SMILES: CCCCOc1c(O)c2c(OCCO)cccc2oc1=O [Compound 237]
- Lesion Index after 10 days [2]: 7.9
- Lesion Index after 3 days [2]: 3.4

SMILES: CCCCC(CC)Oc1c(O)c2c(OCCO)cccc2oc1=O (centres unmarked) [Compound 244]
- Lesion Index after 10 days [2]: 7.4
- Lesion Index after 3 days [2]: 3.5

SMILES: CCCCOc1c(O)c2c(OCCCO)cccc2oc1=O [Compound 261]
- Lesion Index after 10 days [2]: 7.6
- Lesion Index after 3 days [2]: 3.7

SMILES: CCCCCCCCOc1c(O)c2c(OCC(O)CO)cccc2oc1=O (centres unmarked) [Compound 280]
- Lesion Index after 10 days [2]: 7.9
- Lesion Index after 3 days [2]: 2.7

SMILES: CCCCOc1c(O)c2c(OCC(=O)O)cccc2oc1=O [Compound 295]
- Lesion Index after 10 days [2]: 7.2
- Lesion Index after 3 days [2]: 3.0

SMILES: CCCCCCCCOc1c(O)c2c(OCCCCC(=O)O)cccc2oc1=O [Compound 333]
- Lesion Index after 10 days [2]: 7.4
- Lesion Index after 3 days [2]: 3.0

SMILES: CC(C)CCCOc1c(O)c2cc(OCCO)ccc2oc1=O [Compound 347]
- Lesion Index after 10 days [2]: 8.1
- Lesion Index after 3 days [2]: 2.3

SMILES: CCCCCCOc1c(O)c2cc(OCCC(O)CO)ccc2oc1=O (centres unmarked) [Compound 388]
- Lesion Index after 10 days [2]: 7.5
- Lesion Index after 3 days [2]: 2.9

SMILES: CCCCCCCCOc1c(O)c2cc(OCCCC(=O)O)ccc2oc1=O [Compound 429]
- Lesion Index after 10 days [2]: 7.9
- Lesion Index after 3 days [2]: 2.2

SMILES: CC(C)CCCOc1c(O)c2ccc(OCCO)cc2oc1=O [Compound 449]
- Lesion Index after 10 days [2]: 7.3
- Lesion Index after 3 days [2]: 2.8

SMILES: CCCCCCCCOc1c(O)c2ccc(OCCCO)cc2oc1=O [Compound 468]
- Lesion Index after 10 days [2]: 7.8
- Lesion Index after 3 days [2]: 2.8

SMILES: CCCCC(CC)Oc1c(O)c2ccc(OCCCCO)cc2oc1=O (centres unmarked) [Compound 477]
- Lesion Index after 10 days [2]: 7.7
- Lesion Index after 3 days [2]: 2.9

SMILES: CCCCCCCCCCOc1c(O)c2ccc(OCC(O)CO)cc2oc1=O (centres unmarked) [Compound 485]
- Lesion Index after 10 days [2]: 7.9
- Lesion Index after 3 days [2]: 2.8

SMILES: CCCCCCCCOc1c(O)c2ccc(OCCC(O)CO)cc2oc1=O (centres unmarked) [Compound 491]
- Lesion Index after 10 days [2]: 7.4
- Lesion Index after 3 days [2]: 2.9

SMILES: CCCCC(CC)Oc1c(O)c2ccc(OCC(=O)O)cc2oc1=O (centres unmarked) [Compound 506]
- Lesion Index after 10 days [2]: 7.3
- Lesion Index after 3 days [2]: 2.7

SMILES: CCCCCCOc1c(O)c2cccc(OCCO)c2oc1=O [Compound 547]
- Lesion Index after 10 days [2]: 7.2
- Lesion Index after 3 days [2]: 3.0

SMILES: CC(C)CCCOc1c(O)c2cccc(OCCO)c2oc1=O [Compound 551]
- Lesion Index after 10 days [2]: 7.8
- Lesion Index after 3 days [2]: 2.5

SMILES: CCCCCCCCOc1c(O)c2cccc(OCCCC(=O)O)c2oc1=O [Compound 633]
- Lesion Index after 10 days [2]: 7.4
- Lesion Index after 3 days [2]: 2.6
